From patent US20190247353A1, “ACNE STRAIN-SELECTIVE ANTIBACTERIAL AGENT” (MOMOTANI JUNTENKAN CO., LTD., priority 2016, published 2019)
In brackets after ≈: the same amount, converted by molar mass. Read-outs that look alike come from different tables or passages of the source. Blank lines part the entries; values can stand above or below the compound they belong to.

Tests used:
Format in all cases: cell-based, Propionibacterium acnes
HL053PA1 strain (RT4) = test: MIC by broth microdilution method, HL053PA1 strain; conditions: for MIC: Cutibacterium acnes, read-out: MIC against acne bacterium strain HL053PA1 strain (RT4)
Experimental: (§1) An MIC is measured herein according to the broth microdilution method which is the standard method of Japanese Society of Chemotherapy.
(§2) The antibacterial activity of a test substance was determined based on the minimum inhibitory concentration (MIC). An MIC was measured according to the broth microdilution method which is the standard method of Japanese Society of Chemotherapy.
(§3) One-loopful of each acne bacterium strain listed in Table 1 was scraped off and inoculated into 5 mL of a GAM broth slant agar medium (pH 7.0, Nissui Pharmaceutical Co., Ltd.).
(§4) The inoculated acne bacterium strain was precultured at 37° C. in a nitrogen atmosphere (anaerobic condition) for 48 hours. The precultured microbial cells were diluted in a modified GAM broth liquid medium (pH 6.0) to a concentration of 5.0×10^4 cfu/mL (viable cell count per OD660=1 is 2.0×10^9 cfu/mL), to prepare strain suspensions.
(§5) Each fatty acid (Tokyo Chemical Industry Co., Ltd.) listed in Table 2 was dissolved in dimethylsulfoxide (DMSO) as a solvent such that the concentration became 10,000 μg/mL, and used as a test substance.
(§6) Each of strain suspensions (5.0×10^4 cfu/mL) was aliquoted in a 96-well round bottom microplate, each of the test substance (fatty acid concentration 10,000 μg/mL) was added at a 1/10 volume to the aliquot and mixed to prepare measurement samples (fatty acid concentration: 1,000 μg/mL). Measurement samples in 2-fold dilution series were prepared using the strain suspension (fatty acid concentration from 0.48 to 1,000 μg/mL).
(§7) […] The presence or absence of a precipitation of test microbial cells after the incubation was examined and the minimum concentration at which the precipitation of microbial cells […] was regarded as the MIC (μg/mL) of the test substance against the acne bacterium strain.

HL043PA1 strain (RT5) = test: MIC by broth microdilution method, HL043PA1 strain; conditions: for MIC: Cutibacterium acnes, read-out: MIC against acne bacterium strain HL043PA1 strain (RT5)
Experimental: as §1, §2, §3
The inoculated acne bacterium strain was precultured at 37° C. in a nitrogen atmosphere (anaerobic condition) for 48 hours. […]
as §5, §6
The measurement samples were incubated under an anaerobic condition at 37° C. for 2 days. The presence or absence of a precipitation of test microbial cells after the incubation was examined and the minimum concentration at which the precipitation of microbial cells […] was regarded as the MIC (μg/mL) of the test substance against the acne bacterium strain.

[1] = system: HL053PA1 strain (RT4) and HL043PA1 strain (RT5) versus HL110PA3 strain (RT6); test: Strain-selective antibacterial activity (average of MICRT6/MICRT4 and MICRT6/MICRT5)
Text: Herein, “acne strain-selective antibacterial activity” or “strain-selective antibacterial activity” means an index indicating better inhibition of growth of a dominant strain in acne patients compared to that of a dominant strain in healthy subjects. It is expressed by the average value of the values (MICRT6/MICRT4, and MICRT6/MICRTS) obtained by dividing the minimum inhibitory concentration (MIC) of an object substance with respect to the dominant strain in healthy subjects (RT6 strain) (MICRT6) respectively by the MIC of the object substance with respect to the dominant strain in acne patients (RT4 strain) (MICRT4), and by the MIC of the object substance with respect to the dominant strain in acne patients (RT5 strain) (MICRT5).
The strain-selective antibacterial activity of each test substance (Table 2, right-most column) was evaluated based on the following rating criteria (Table 3). When the strain-selective antibacterial activity is indicated by a numerical range, the rating was based on the minimum value thereof.

HL110PA3 strain (RT6) [2] = test: MIC by broth microdilution method, HL110PA3 strain; conditions: Cutibacterium acnes, read-out: MIC against acne bacterium strain HL110PA3 strain (RT6)
HL110PA3 strain (RT6) [3] = test: MIC by broth microdilution method, HL110PA3 strain; conditions: for MIC: Cutibacterium acnes, read-out: MIC against acne bacterium strain HL110PA3 strain (RT6)
Experimental: as §1, §2, §3, §4, §5, §6, §7

[4] = control antibacterial agents, Comparative Example 1, method as Example 1
[5] = control antibacterial agents, Comparative Example 1
[6] = 48 h, pH 6.0 modified GAM broth, anaerobic, 37° C., 2 days (Example 1)
[7] = 72 h, pH 5.0, estimated from the growth on day 3
[8] = monoacylglycerols, Example 3, method as Example 1

Structure (SMILES): CC(C)c1cccc(=O)c(O)c1 [Hinokitiol, reference compound]
MIC (HL053PA1 strain (RT4); [4]): 31.3 µg/mL (≈ 191 µM)
MIC (HL043PA1 strain (RT5); [4]): 31.3 µg/mL (≈ 191 µM)
Strain-selective antibacterial activity [1, 5]: 1.0
MIC (HL110PA3 strain (RT6) [2]; [4]): 31.3 µg/mL (≈ 191 µM)

Structure (SMILES): CCCCCCCCCCCCCCCC(=O)OCC(O)CO (centres unmarked) [Monopalmitin]
MIC against acne bacterium strain HL053PA1 strain (RT4) (HL053PA1 strain (RT4); [8]): 250 µg/mL (≈ 756 µM)
MIC against acne bacterium strain HL043PA1 strain (RT5) (HL043PA1 strain (RT5); [8]): 31.3 µg/mL (≈ 94.7 µM)
MIC against acne bacterium strain HL110PA3 strain (RT6) (HL110PA3 strain (RT6) [3]; [8]): 1000 µg/mL (≈ 3030 µM)
Strain-selective antibacterial activity ([1]; monoacylglycerols, Example 3): 18

Structure (SMILES): CCCCCCCCCCCCCCCCCC(=O)OCC(O)CO (centres unmarked) [Monostearin]
MIC (HL053PA1 strain (RT4); [8]): > 1000 µg/mL
MIC (HL043PA1 strain (RT5); [8]): > 1000 µg/mL
MIC (HL110PA3 strain (RT6) [2]; [8]): > 1000 µg/mL

Structure (SMILES): CCCCCCCCC(=O)O [Nonanoic acid (C9:0), Nonanoic acid, reference compound]
MIC (HL053PA1 strain (RT4); [6]): 500 µg/mL (≈ 3160 µM)
MIC (HL043PA1 strain (RT5); [6]): 250 µg/mL (≈ 1580 µM)
MIC (HL110PA3 strain (RT6) [3]; [6]): 250 µg/mL (≈ 1580 µM)
Strain-selective antibacterial activity ([1]; pH 6.0 (Example 1)): 0.75

Structure (SMILES): CCCCCCCCCC(=O)O [Capric acid (C10:0), Capric acid, reference compound]
MIC (HL053PA1 strain (RT4); [6]): 500 µg/mL (≈ 2900 µM)
MIC (HL043PA1 strain (RT5); [6]): 500 µg/mL (≈ 2900 µM)
MIC (HL110PA3 strain (RT6) [3]; [6]): 250 µg/mL (≈ 1450 µM)
Strain-selective antibacterial activity ([1]; pH 6.0 (Example 1)): 0.50

Structure (SMILES): Oc1cc(Cl)ccc1Oc1ccc(Cl)cc1Cl [Triclosan, reference compound]
MIC (HL053PA1 strain (RT4)): 0.975 µg/mL (≈ 3.37 µM)
MIC (HL043PA1 strain (RT5)): 1.95 µg/mL (≈ 6.73 µM)
MIC (HL110PA3 strain (RT6) [3]): 3.9 µg/mL (≈ 13.5 µM)
Strain-selective antibacterial activity [1, 5]: 3.0

More lines, main results first:

MIC (HL053PA1 strain (RT4); [6]): > 1000 µg/mL
MIC (HL053PA1 strain (RT4); [7]): > 1000 µg/mL
MIC (HL053PA1 strain (RT4); pH 5.5): > 1000 µg/mL
MIC (HL053PA1 strain (RT4); pH 6.5): > 1000 µg/mL
MIC (HL053PA1 strain (RT4); pH 7.0): 62.5 µg/mL (≈ 220 µM)
MIC (HL043PA1 strain (RT5); [6]): > 1000 µg/mL
MIC (HL043PA1 strain (RT5); [7]): > 1000 µg/mL
MIC (HL043PA1 strain (RT5); pH 6.5): > 1000 µg/mL
MIC (HL043PA1 strain (RT5); pH 7.0): 31.3 µg/mL (≈ 110 µM)
MIC (HL110PA3 strain (RT6) [3]; [6]): > 1000 µg/mL
MIC (HL110PA3 strain (RT6) [3]; 72 h, pH 5.5, estimated from the growth on day 3): > 1000 µg/mL
MIC (HL110PA3 strain (RT6) [3]; 96 h, pH 5.0, estimated from the growth on day 4): > 1000 µg/mL
MIC (HL110PA3 strain (RT6) [3]; pH 6.5): > 1000 µg/mL
MIC (HL110PA3 strain (RT6) [3]; pH 7.0): 1000 µg/mL (≈ 3520 µM)
Structure (SMILES): CCCCCCCCCCCCCCCCCC(=O)O [Stearic acid (C18:0), Stearic acid]
Strain-selective antibacterial activity ([1]; pH 7.0): 24
Strain-selective antibacterial activity at each pH ([1]; pH 7 (summary Table 10)): 24

MIC (HL053PA1 strain (RT4); [6]): 31.3 µg/mL (≈ 123 µM)
MIC (HL043PA1 strain (RT5); [6]): 7.81 µg/mL (≈ 30.7 µM)
MIC (HL110PA3 strain (RT6) [3]; [6]): 15.6 µg/mL (≈ 61.3 µM)
Structure (SMILES): CCCCCC/C=C\CCCCCCCC(=O)O [Palmitoleic acid (C16:1), Palmitoleic acid, reference compound]
Strain-selective antibacterial activity ([1]; pH 6.0 (Example 1)): 1.2

MIC (HL053PA1 strain (RT4); [6]): 15.6 µg/mL (≈ 72.8 µM)
MIC (HL043PA1 strain (RT5); [6]): 31.3 µg/mL (≈ 146 µM)
MIC (HL110PA3 strain (RT6) [3]; [6]): 15.6 µg/mL (≈ 72.8 µM)
Structure (SMILES): CCCCCCCCCCCCC(=O)O [Tridecanoic acid (C13:0), Tridecanoic acid, reference compound]
Strain-selective antibacterial activity ([1]; pH 6.0 (Example 1)): 0.75
